Test results: patent US20100285957A1, “THIAZOLYLOXYPHENYLAMIDINES OR THIADIAZOLYLOXYPHENYLAMIDINES AND THEIR USE AS FUNGICIDES” (Bayer CropScience AG, priority 2007, published 2010)
Where two headings read alike, the source gives them in different places.

Key:
[1] = test system: Blumeria graminis f.sp. hordei; experiment: Blumeria graminis test (barley)/protective; format: in vivo; conditions: 168 h, 1000 ppm active substance, protective, evaluation 7 days after inoculation, read-out: degree of effectiveness
Protocol: Blumeria graminis Test (Barley)/Protective
(§1) To prepare a suitable active substance composition, 1 part by weight of active substance is mixed with the given amounts of solvent and emulsifier and the concentrate is diluted to the desired concentration using water.
For the testing of protective effectiveness, young plants are sprayed with the active substance composition in the application rate given.
After the spray coating has been dried on, the plants are dusted with spores of Blumeria graminis f.sp. hordei.
The plants are placed in a greenhouse at a temperature of approximately 20° C. and a relative humidity of approximately 80%, in order to encourage the development of mildew pustules.
Evaluation is carried out 7 days after the inoculation. In this connection, 0% means a degree of effectiveness corresponding to that of the control, while a degree of effectiveness of 100% means that no infestation is observed.

[2] = test system: Puccinia recondita var. tritici; experiment: Puccinia test (wheat)/protective; format: in vivo; conditions: 240 h, 1000 ppm active substance, protective, evaluation 10 days after inoculation, read-out: degree of effectiveness
Protocol: Puccinia Test (Wheat)/Protective
as §1
For the testing of protective effectiveness, young plants are sprayed with the active substance composition in the application rate given. After the spray coating has been dried on, the plants are sprayed with a suspension of the conidia of Puccinia recondita var. tritici. The plants remain in an incubation chamber at 20° C. and 100% relative humidity for 48 hours.
The plants are then placed in a greenhouse at a temperature of approximately 20° C. and a relative humidity of 80%, in order to encourage the development of rust pustules.
Evaluation is carried out 10 days after the inoculation. In this connection, 0% means a degree of effectiveness corresponding to that of the control, while a degree of effectiveness of 100% means that no infestation is observed.

Sphaerotheca fuliginea = experiment: Sphaerotheca test (cucumber)/protective; format: in vivo; conditions: Podosphaera fuliginea, 168 h, 100 ppm active substance, protective, evaluation 7 days after inoculation, read-out: degree of effectiveness
Protocol: Sphaerotheca Test (Cucumber)/Protective [table] To prepare a suitable active substance composition, 1 part by weight of active substance is mixed with the given amounts of solvents and emulsifier and the concentrate is diluted to the desired concentration using water. For the testing of protective effectiveness, young plants are sprayed with the active substance composition in the application rate given. After the spray coating has been dried on, the plants are inoculated with an aqueous suspension of spores of Sphaerotheca fuliginea. The plants are then placed in a greenhouse at approximately 23° C. and a relative humidity of approximately 70%. Evaluation is carried out 7 days after the inoculation. In this connection, 0% means a degree of effectiveness corresponding to that of the control, while a degree of effectiveness of 100% means that no infestation is observed.

Alternaria solani = experiment: Alternaria test (tomato)/protective; format: in vivo; conditions: 168 h, 500 ppm active substance, protective, evaluation 7 days after inoculation, read-out: degree of effectiveness
Protocol: Alternaria Test (Tomato)/Protective [table] To prepare a suitable active substance composition, 1 part by weight of active substance is mixed with the given amounts of solvent and emulsifier and the concentrate is diluted to the desired concentration using water. For the testing of protective effectiveness, young tomato plants are sprayed with the active substance composition in the application rate given. 1 day after the treatment, the plants are inoculated with a suspension of the spores of Alternaria solani and then stand at 100% relative humidity and 20° C. for 24 h. Subsequently, the plants stand at 96% relative humidity and a temperature of 20° C. Evaluation is carried out 7 days after the inoculation. In this connection, 0% means a degree of effectiveness corresponding to that of the control, while a degree of effectiveness of 100% means that no infestation is observed.

Pyrenophora teres = Pyrenophora teres test (barley)/protective; format: in vivo; conditions: 500 ppm active substance, protective, evaluation 7-9 days after inoculation, read-out: degree of effectiveness
Protocol: Pyrenophora teres Test (Barley)/Protective
as §1
For the testing of protective effectiveness, young barley plants are sprayed with the active substance composition in the application rate given. 1 day after the treatment, the plants are inoculated with an aqueous suspension of the spores of Pyrenophora teres and then remain at 100% relative humidity and 20° C. for 48 h. Subsequently, the plants are placed in a greenhouse at 80% relative humidity and a temperature of 20° C.
Evaluation is carried out 7-9 days after the inoculation. In this connection, 0% means a degree of effectiveness corresponding to that of the control, while a degree of effectiveness of 100% means that no infestation is observed.

Phakopsora pachyrhizi = experiment: Phakopsora test (soya)/protective; format: in vivo; conditions: 264 h, 100 ppm active substance, protective, evaluation 11 days after inoculation, read-out: degree of effectiveness
Protocol: Phakopsora Test (Soya)/Protective
as §1
For the testing of protective effectiveness, young plants are sprayed with the active substance composition in the application rate given. After the spray coating has been dried on, the plants are inoculated with an aqueous suspension of the spores of Phakopsora pachyrhizi and then remain in an incubation chamber at approximately 20° C. and 80% relative humidity for 1 day.
Evaluation is carried out 11 days after the inoculation. In this connection, 0% means a degree of effectiveness corresponding to that of the control, while a degree of effectiveness of 100% means that no infestation is observed.

Uromyces appendiculatus = experiment: Uromyces test (beans)/protective; format: in vivo; conditions: 240 h, 100 ppm active substance, protective, evaluation 10 days after inoculation, read-out: degree of effectiveness
Protocol: Uromyces Test (Beans)/Protective [table] To prepare a suitable active substance composition, 1 part by weight of active substance is mixed with the given amounts of solvents and emulsifier and the concentrate is diluted to the desired concentration using water. For the testing of protective effectiveness, young plants are sprayed with the active substance composition in the application rate given. After the spray coating has been dried on, the plants are inoculated with an aqueous suspension of the spores of the bean rust pathogen Uromyces appendiculatus and then remain in an incubation chamber at approximately 20° C. and 100% relative humidity for 1 day. The plants are then placed in a greenhouse at approximately 21° C. and a relative humidity of approximately 90%. Evaluation is carried out 10 days after the inoculation. In this connection, 0% means a degree of effectiveness corresponding to that of the control, while a degree of effectiveness of 100% means that no infestation is observed.

| SMILES | logP (physchem; pH 2.3) | logP (physchem) | pest or weed control at 1000 ppm [1] [%] | pest or weed control at 1000 ppm [2] [%] | pest or weed control at 100 ppm (Sphaerotheca fuliginea) [%] | pest or weed control at 500 ppm (Alternaria solani) [%] | pest or weed control at 500 ppm (Pyrenophora teres) [%] | pest or weed control at 100 ppm (Phakopsora pachyrhizi) [%] | pest or weed control at 100 ppm (Uromyces appendiculatus) [%] |
| --- | --- | --- | --- | --- | --- | --- | --- | --- | --- |
| CCN(C)C=Nc1cc(C)c(Oc2nc(C3(Cl)CC3)cs2)cc1C [Compound 5, N′-(4-{[4-(1-Chlorocyclopropyl)-1,3-thiazol-2-yl]oxy}-2,5-dimethylphenyl)-N-ethyl-N-methyl-imidoformamide] | – | 4.8 | ≥ 70 | ≥ 70 | ≥ 70 | ≥ 70 | ≥ 70 | ≥ 80 | ≥ 70 |
| CCN(C)C=Nc1cc(C)c(Oc2nc(C3(Cl)CC3)c(Cl)s2)cc1C [Compound 7, N′-(4-{[5-Chloro-4-(1-chlorocyclopropyl)-1,3-thiazol-2-yl]oxy}-2,5-dimethylphenyl)-N-ethyl-N-methylimidoformamide] | 1.82 | – | ≥ 70 | ≥ 70 | ≥ 70 | ≥ 70 | ≥ 70 | ≥ 80 | ≥ 70 |
| Cc1cc(Oc2nc(C3(Cl)CC3)c(Cl)s2)c(C)cc1N=CN(C)C(C)C [Compound 17, N′-(4-{[5-Chloro-4-(1-chlorocyclopropyl)-1,3-thiazol-2-yl]oxy}-2,5-dimethylphenyl)-N-methyl-N-(1-methylethyl)imidoformamide] | 2.22 | 5.86 | ≥ 70 | ≥ 70 | ≥ 70 | – | ≥ 70 | ≥ 80 | ≥ 70 |
| CCN(C)C=Nc1cc(C)c(Oc2nc(C3(CC)C(C)C3(Cl)Cl)ns2)cc1C (stereo not drawn) [Compound 27, N′-(4-{[3-(2,2-Dichloro-1-ethyl-3-methylcyclopropyl)-1,2,4-thiadiazol-5-yl]oxy}-2,5-dimethylphenyl)-N-ethyl-N-methylimidoformamide] | 2.21 | – | – | – | ≥ 70 | – | ≥ 70 | ≥ 80 | ≥ 70 |
| CCN(C)C=Nc1cc(C)c(Oc2nc(C3(F)CC3)c(Cl)s2)cc1C [Compound 30, N′-(4-{[5-Chloro-4-(1-fluorocyclopropyl)-1,3-thiazol-2-yl]oxy}-2,5-dimethylphenyl)-N-ethyl-N-methylimidoformamide] | 1.92 | 5.08 | – | – | ≥ 70 | – | ≥ 70 | ≥ 80 | ≥ 70 |

The next lines start with results.

| logP (physchem; pH 2.3) | logP (physchem) | SMILES | pest or weed control at 1000 ppm [1] [%] | pest or weed control at 1000 ppm [2] [%] | pest or weed control at 100 ppm (Sphaerotheca fuliginea) [%] | pest or weed control at 500 ppm (Alternaria solani) [%] | pest or weed control at 500 ppm (Pyrenophora teres) [%] | pest or weed control at 100 ppm (Phakopsora pachyrhizi) [%] | pest or weed control at 100 ppm (Uromyces appendiculatus) [%] |
| --- | --- | --- | --- | --- | --- | --- | --- | --- | --- |
| 1.59 | – | CCN(C)C=Nc1cc(C)c(Oc2nc(C3CC3)ns2)cc1C [Compound 1, N′-{4-[(3-Cyclopropyl-1,2,4-thiadiazol-5-yl)oxy]-2,5-dimethylphenyl}-N-ethyl-N-methylimidoformamide] | ≥ 70 | ≥ 70 | ≥ 70 | ≥ 70 | ≥ 70 | ≥ 80 | ≥ 70 |
| 1.91 | – | Cc1cc(Oc2nc(C3CC3)ns2)c(C)cc1N=CN(C)C(C)C [Compound 2, N′-{4-[(3-Cyclopropyl-1,2,4-thiadiazol-5-yl)oxy]-2,5-dimethylphenyl}-N-methyl-N-(1-methyl-ethyl)imidoformamide] | ≥ 70 | ≥ 70 | ≥ 70 | ≥ 70 | ≥ 70 | ≥ 80 | ≥ 70 |
| 2.47 | 6.02 | Cc1cc(Oc2nc(C3(Cl)CC3)c(Cl)s2)c(C)cc1/N=C/N1CCCCC1 [Compound 8, 4-{[5-Chloro-4-(1-chlorocyclopropyl)-1,3-thiazol-2-yl]oxy}-2,5-dimethyl-N-[(1E)-piperidin-1-ylmethylidene]aniline] | ≥ 70 | ≥ 70 | ≥ 70 | ≥ 70 | ≥ 70 | ≥ 80 | ≥ 70 |
| 2.03 | – | Cc1cc(Oc2nc(C3(C)CC3)ns2)c(C)cc1N=CN(C)C(C)C [Compound 10, N′-(2,5-Dimethyl-4-{[3-(1-methylcyclopropyl)-1,2,4-thiadiazol-5-yl]oxy}phenyl)-N-methyl-N-(1-methylethyl)imidoformamide] | ≥ 70 | ≥ 70 | ≥ 70 | – | ≥ 70 | ≥ 80 | ≥ 70 |
| 1.59 | – | CCN(C)C=Nc1cc(C)c(Oc2nc(C3(Cl)CC3)ns2)cc1C [Compound 12, N′-(4-{[3-(1-Chlorocyclopropyl)-1,2,4-thiadiazol-5-yl]oxy}-2,5-dimethylphenyl)-N-ethyl-N-methylimidoformamide] | ≥ 70 | ≥ 70 | ≥ 70 | – | ≥ 70 | ≥ 80 | ≥ 70 |
| 1.58 | 4.38 | CCN(C)C=Nc1cc(C)c(Oc2nc(C3(F)CC3)cs2)cc1C [Compound 29, N-Ethyl-N′-(4-{[4-(1-fluorocyclopropyl)-1,3-thiazol-2-yl]oxy}-2,5-dimethylphenyl)-N-methylimidoformamide] | – | – | ≥ 70 | ≥ 70 | ≥ 70 | ≥ 80 | ≥ 70 |
